Where a SMILES comes first, the peptide text is derived from it. Bridges are numbered along the chain shown (N, C = ends). [ ]: non-standard residue; d: D form. Orn = NCCC[C@H](N)C(=O)O; Mpa = O=C(O)CCS
Key:
Assay type in all cases: toxicity, cell-based
[1] = system: Fibroblast; assay: Incucyte cell viability with human fibroblast; settings: 10 µM, compound concentration 10 uM
[2] = system: U2OS; assay: Incucyte cell viability with U2OS; settings: human, 10 µM, compound concentration 10 uM
[3] = system: HEK-293T; assay: Incucyte cell viability with HEK293T; settings: human, 10 µM, compound concentration 10 uM
[4] = 0 h, replicate number 1, timepoint 0 hours
[5] = 0 h, replicate number 2, timepoint 0 hours
[6] = 6 h, replicate number 2, timepoint 6 hours
[7] = 12 h, replicate number 1, timepoint 12 hours
[8] = 12 h, replicate number 2, timepoint 12 hours
[9] = 18 h, replicate number 1, timepoint 18 hours
[10] = 18 h, replicate number 2, timepoint 18 hours
[11] = 24 h, replicate number 2, timepoint 24 hours
[12] = 6 h, replicate number 1, timepoint 6 hours
[13] = 24 h, replicate number 1, timepoint 24 hours
Further: unitless GR value; below 1 slowed growth and below 0 cell loss.

| Compound | Growth Rate [1, 4] | Growth Rate [1, 5] | Growth Rate [1, 6] | Growth Rate [1, 7] | Growth Rate [1, 8] | Growth Rate [2, 5] | Growth Rate [2, 8] | Growth Rate [2, 9] | Growth Rate [2, 10] | Growth Rate [3, 8] | Growth Rate [2, 7] | Growth Rate [3, 12] | Growth Rate [3, 7] | Growth Rate [3, 9] | Growth Rate [3, 13] | Growth Rate [1, 12] | Growth Rate [1, 13] | Growth Rate [2, 11] | Growth Rate [3, 5] | Growth Rate [1, 9] | also measured |
| --- | --- | --- | --- | --- | --- | --- | --- | --- | --- | --- | --- | --- | --- | --- | --- | --- | --- | --- | --- | --- | --- |
| CCOc1ccc(C[C@H]2NC(=O)CCSSC[C@@H](C(=O)N3CCC[C@H]3C(=O)N[C@@H](CCCN)C(=O)NCC(N)=O)NC(=O)[C@H](CC(N)=O)NC(=O)[C@H]([C@@H](C)O)NC(=O)[C@H]([C@@H](C)CC)NC2=O)cc1 [ATOSIBAN] ([Mpa][dY](Et)ITNCP[Orn]G-NH2; disulfide 1-6) | 0.49 | 0.42 | 0.56 | 0.64 | 0.4 | -1 | 0.97 | 0.79 | 0.89 | 0.83 | – | – | – | – | – | – | – | – | – | – | Growth Rate [2, 6]: 0.76; Growth Rate [3, 4]: 0.87; Growth Rate [3, 6]: 0.92; Growth Rate [3, 10]: 0.78; Growth Rate [3, 11]: 0.7 |
| CN1[C@@H]2CC[C@H]1C[C@@H](OC(=O)C(CO)c1ccccc1)C2 (some centres not stated) [ATROPINE] | -0.04 | -0.32 | – | – | – | – | 0.96 | – | 0.95 | 0.53 | 0.79 | 0.9 | 0.68 | 0.6 | 0.44 | – | – | – | – | – | Growth Rate [1, 10]: 0.91; Growth Rate [2, 12]: 0.86; Growth Rate [3, 6]: 0.19; Growth Rate [3, 10]: 0.65; Growth Rate [3, 11]: 0.6 |
| CC(=O)Nc1cccc2c1c(Sc1ccc(Cl)cc1)c(C)n2CC(=O)O [AZD1981] | – | 0.38 | 0.04 | 0.35 | 0.14 | – | – | – | 0.89 | – | – | 0.62 | 0.62 | 0.83 | 0.71 | 0.15 | 0.73 | 0.95 | 0.75 | – | Growth Rate [1, 10]: 0.25; Growth Rate [1, 11]: 0.26; Growth Rate [2, 6]: 0.93 |
| CC(C)C[C@H](CO)Nc1nc(S[C@@H](C)c2ccccc2)nc2nc(N)sc12 [AZD-8797] | 0.26 | – | – | 0.47 | – | -1 | 0.82 | – | 0.7 | 0.99 | 0.93 | – | 0.77 | 0.82 | 0.93 | 0.37 | 0.54 | 0.79 | – | 0.83 | – |
| COc1cc(NC(=O)CCN2CCC(OC(=O)Nc3ccccc3-c3ccccc3)CC2)c(Cl)cc1CNC[C@H](O)c1ccc(O)c2[nH]c(=O)ccc12 [BATEFENTEROL] | -0.65 | 0.38 | – | – | – | -1 | – | 0.93 | 0.95 | 0.79 | – | – | 0.88 | 0.8 | – | – | – | 0.9 | 0.01 | – | Growth Rate [2, 13]: 1; Growth Rate [3, 4]: -0.23; Growth Rate [3, 10]: 1 |
| CCc1ccccc1C(=O)Nc1n[nH]c2c(C)c(F)c(C3C(C#N)=C(C)N(C)C(C)=C3C#N)cc12 [BAY-3827] | 0.51 | -0.4 | – | 0.64 | – | 0.74 | – | – | – | – | – | 0.43 | 0.35 | 0.5 | 0.55 | 0.12 | 0.56 | 0.87 | -1 | 0.79 | – |
| CCC(=O)OCC(=O)[C@@]1(OC(=O)CC)[C@@H](C)C[C@H]2[C@@H]3CCC4=CC(=O)C=C[C@]4(C)[C@@]3(Cl)[C@@H](O)C[C@@]21C [BECLOMETHASONE DIPROPIONATE] | -0.17 | -0.56 | – | – | – | 0.62 | 0.85 | 0.8 | 0.81 | 0.8 | 0.81 | 0.91 | 0.61 | 0.62 | 0.65 | – | – | 0.9 | -0.33 | – | Growth Rate [2, 4]: -0.25; Growth Rate [2, 12]: 0.73; Growth Rate [2, 13]: 0.78; Growth Rate [3, 4]: 0.14; Growth Rate [3, 10]: 0.78; Growth Rate [3, 11]: 0.83 |
| O=C(NC[C@@H]1[C@H]2CN(C(=O)OCc3cc(C(F)(F)F)cc(C(F)(F)F)c3)C[C@@H]12)c1ccc2[nH]nnc2c1 [BI 2545] | – | – | -0.59 | -0.64 | -0.1 | 0.37 | – | 0.99 | – | 0.92 | 0.93 | 0.33 | 0.61 | 0.65 | 0.64 | -0.83 | -0.35 | – | – | -0.55 | Growth Rate [1, 10]: 0.22; Growth Rate [1, 11]: 0.57; Growth Rate [3, 6]: 0.67; Growth Rate [3, 11]: 0.88 |
| Cc1nccc(COC(=O)N2C[C@@H]3[C@@H](CNC(=O)c4ccc5[nH]nnc5c4)[C@@H]3C2)n1 [BI 3017] | 0.35 | 0.77 | – | 0.1 | – | 0.45 | 0.9 | 0.68 | 0.98 | 0.9 | 0.75 | – | – | – | – | 0.04 | 0.68 | – | 0.34 | 0.53 | Growth Rate [2, 4]: 0.07; Growth Rate [2, 12]: 0.79; Growth Rate [2, 13]: 0.71; Growth Rate [3, 4]: 0.67 |
| CC(C)C[C@@H]1NC(=O)[C@@H](C(C)C)NC(=O)[C@@H]2CCCN2C(=O)[C@@H](CC(=O)O)NC(=O)[C@@H](Cc2c[nH]c3ccccc23)NC1=O [BQ-123] (cyclo(L[dW][dD]P[dV])) | 0.41 | 0.34 | 0.18 | 0.87 | 0.89 | -1 | – | 0.49 | – | – | 0.65 | 0.89 | 0.92 | 0.91 | 0.97 | 0.81 | – | – | 0.79 | 0.98 | Growth Rate [1, 10]: 0.94; Growth Rate [2, 12]: 0.51; Growth Rate [2, 6]: 0.68; Growth Rate [2, 13]: 0.93 |
| O=c1ccc2ccc(OCCCCN3CCN(c4cccc5sccc45)CC3)cc2[nH]1 [BREXPIPRAZOLE] | – | – | 0.52 | 0.1 | 0.53 | -0.19 | – | – | – | – | – | -0.63 | -0.43 | -0.32 | -0.26 | -0.55 | 0.3 | – | – | 0.08 | Growth Rate [1, 10]: 0.81; Growth Rate [1, 11]: 0.76; Growth Rate [2, 4]: 0.42; Growth Rate [2, 12]: 0.98 |
| C[C@@H]1CN(Cc2ccc(F)cc2)CCN1C(=O)COc1ccc(Cl)cc1NC(N)=O [BX 471 FREE BASE] | 0.82 | 0.24 | 0.36 | -0.14 | 0.49 | -1 | 0.91 | – | 0.79 | 0.27 | – | -0.13 | -0.03 | 0.11 | 0.18 | -0.16 | -0.14 | 0.89 | – | -0.19 | Growth Rate [1, 10]: 0.85; Growth Rate [1, 11]: 0.72; Growth Rate [2, 4]: -0.96; Growth Rate [2, 6]: 0.94; Growth Rate [3, 6]: 0.4; Growth Rate [3, 10]: 0.4; Growth Rate [3, 11]: 0.33 |
| C=CCN1C[C@H](C(=O)N(CCCN(C)C)C(=O)NCC)C[C@@H]2c3cccc4[nH]cc(c34)C[C@H]21 [CABERGOLINE] | -0.05 | 0.7 | 1 | 0.91 | – | -1 | – | – | – | – | – | 0.78 | 0.93 | – | – | 0.44 | – | – | – | – | Growth Rate [3, 6]: 0.46 |
| CC[C@@]1(O)C(=O)OCc2c1cc1n(c2=O)Cc2cc3ccccc3nc2-1 [CAMPTOTHECIN] | -0.02 | 0.11 | – | – | – | -0.34 | 0.64 | 0.59 | 0.33 | – | 0.75 | -0.29 | 0.88 | – | 0.65 | 1 | – | 0.2 | 0.83 | – | Growth Rate [2, 4]: -0.11; Growth Rate [2, 12]: 0.7; Growth Rate [2, 6]: 0.82; Growth Rate [2, 13]: 0.48; Growth Rate [3, 4]: -0.84; Growth Rate [3, 11]: 0.41 |

Reference: ChEMBL document CHEMBL5058564, “EUbOPEN Chemogenomics Library 2 (Incucyte)” (2022)
